Experiments:
[1] = biological target: T1, Amine oxidase [flavin-containing] A (Rattus norvegicus, UniProt P21396); assay: MAO Inhibition Assay; details: pH 7.4; 37 °C
T1 sequence (P21396 whole entry): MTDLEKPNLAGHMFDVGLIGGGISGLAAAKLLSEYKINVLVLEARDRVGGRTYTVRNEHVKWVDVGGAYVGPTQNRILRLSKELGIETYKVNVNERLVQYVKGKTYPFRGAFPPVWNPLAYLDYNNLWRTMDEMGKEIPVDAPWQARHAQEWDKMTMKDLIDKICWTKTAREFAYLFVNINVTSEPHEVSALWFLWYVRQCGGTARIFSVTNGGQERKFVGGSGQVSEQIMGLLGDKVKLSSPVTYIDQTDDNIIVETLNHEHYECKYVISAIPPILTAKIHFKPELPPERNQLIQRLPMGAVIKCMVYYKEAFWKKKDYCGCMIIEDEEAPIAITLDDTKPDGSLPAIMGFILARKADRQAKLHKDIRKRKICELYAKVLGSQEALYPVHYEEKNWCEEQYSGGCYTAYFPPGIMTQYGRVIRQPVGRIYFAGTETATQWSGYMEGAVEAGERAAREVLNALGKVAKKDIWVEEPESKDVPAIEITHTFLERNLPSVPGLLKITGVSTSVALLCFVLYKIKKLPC
Method: (§1) A continuous spectrophotometric assay that monitors the rate of oxidation of the nonselective MAO substrate kynuramine into 4-hydroxyquinoline was used. clorgyline or selegiline was preincubated with the suspension for 5 min to measure MAO-B or MAO-A activity, respectively. […] IC50 values were determined and calculated from a hyperbolic equation. Each assay was performed in triplicate on four to six separate homogenates.

[2] = biological target: T2, Amine oxidase [flavin-containing] B (Rattus norvegicus, UniProt P19643); assay: MAO Inhibition Assay
T2 sequence (P19643 whole entry): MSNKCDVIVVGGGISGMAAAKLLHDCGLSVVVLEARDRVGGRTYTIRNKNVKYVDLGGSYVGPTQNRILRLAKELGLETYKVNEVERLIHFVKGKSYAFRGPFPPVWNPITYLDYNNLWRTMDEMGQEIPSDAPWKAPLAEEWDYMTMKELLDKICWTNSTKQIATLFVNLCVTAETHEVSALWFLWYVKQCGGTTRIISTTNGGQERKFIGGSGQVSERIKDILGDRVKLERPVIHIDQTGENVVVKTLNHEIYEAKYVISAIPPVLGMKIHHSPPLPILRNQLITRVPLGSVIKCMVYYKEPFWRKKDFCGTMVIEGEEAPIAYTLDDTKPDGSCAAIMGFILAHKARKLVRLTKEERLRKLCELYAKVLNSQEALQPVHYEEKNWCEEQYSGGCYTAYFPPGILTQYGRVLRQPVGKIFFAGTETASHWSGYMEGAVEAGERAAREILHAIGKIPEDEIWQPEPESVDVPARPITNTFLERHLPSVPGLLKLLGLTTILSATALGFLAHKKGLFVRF
Method: as §1

| IC50 [1] | IC50 [2] | SMILES |
| --- | --- | --- |
| 16.7 µM | 13 µM | c1ccc(-c2nc3cc4ccccc4c-3c[nH]2)cc1 [2-phenyl-9H-indeno[2,1-d]pyrimidine] |
| > 100 µM |  | c1ccc(-c2cc3c(nn2)-c2ccccc2C3)cc1 |
